In general, bioavailability refers to the share of a dose that reaches the circulation, judged against a reference dose that is usually intravenous. High values mean much systemic uptake, low ones little systemic uptake. Broadly, the solubility is the concentration that dissolves in the medium under given conditions. Low values mean a poorly soluble substance, high ones a readily soluble substance. A word on the Papp: it is a coefficient for how fast a substance crosses the barrier. Usually AUC(0-inf) stands for total exposure, with the tail of the curve extrapolated. Read a high AUC(0-inf) as more exposure. In general, Cmax refers to the highest concentration seen after dosing.

In brackets after ≈: the same amount, converted by molar mass.

The record followed here is ChEMBL document CHEMBL3124785, “Discovery of 2-(1H-indazol-1-yl)-thiazole derivatives as selective EP(1) receptor antagonists for treatment of overactive bladder by core structure replacement” (Bioorg Med Chem Lett, 2014).

Series [1] can be described thus: Oral bioavailability in rat at 10 mg/kg. The format is ADME, organism-based. The note with it: in vivo.
Series [2] is described as follows: Solubility of the compound in water. It counts as physicochemical.
A short description of series [3]: Apparent permeability in MDCK cells. The note with it: dog. The format is ADME, cell-based, Canis lupus familiaris.
Series [4] can be described thus: Solubility of the compound at pH 6.8. The format is physicochemical. To be noted: buffer.
A short description of series [5]: AUC (0 to infinity) in rat at 10 mg/kg, po. To be noted: plasma. More on the design: time infinity, dose 10 mg/kg, route oral. It counts as ADME, organism-based.
Series [6] in a line: Cmax in rat at 10 mg/kg, po. The format is ADME, organism-based. More on the design: dose 10 mg/kg, route oral. The note with it: in vivo.

`O=C(O)c1csc(-n2nc(-c3ccccc3)c3ccc(C(F)(F)F)cc32)n1` had a bioavailability in series [1] of 31%. The values for the solubility in series [2] and in series [4] were 37 µg/mL (≈ 95 µM) and 123 µg/mL (≈ 316 µM), respectively. The Papp in series [3] came to 17.8 ×10⁻⁶ cm/s. Moreover, the AUC(0-inf) in series [5] was found to be 9.27 µM·h. In series [6], this compound registered a maximum concentration (Cmax) of 5.34 µM.
